Earlier results in patent US11191866B2, “Dressing enabling the controlled and prolonged release of metformin” (Urgo Recherche Innovation et Developpement, priority 2016, dated 2021).

Conditions: rats; radioactively marked, deposited on a wound in a gel

CN(C)C(=N)N=C(N)N [metformin]
time remaining at the local level on the wound: remained for a very short period of time at the local level
